In brackets after ≈: the same amount, converted by molar mass. Structures can show the parent of a compound that is named as a salt. Where two headings read alike, the source gives them in different places.
Columns and labels:
Beagle dogs = test: 14-day repeat dose face mask inhalation toxicity study in dogs; conditions: dog, in vivo
Source text: This example describes a 14-day repeated-dose toxicity study via face mask inhalation with 14 day recovery in dogs.
In addition to the aerosol drug concentration, the aerosol particle size distribution was also characterized. The particle size average MMAD and GSD for the Low-, Mid-, and High-dose groups were 2.38 (1.79), 2.03 (1.87) and 2.08 (1.79) microns, respectively, and 1.74 (1.88) microns for vehicle control group. […] Chamber oxygen levels were monitored throughout the exposures. Main study animals were sacrificed on Day 15. Recovery animals were sacrificed on Day 29 following a 14-day recovery period. Endpoints included clinical observations, body weights, ophthalmology, clinical pathology, urinalysis, gross pathology, histopathology, and bioanalytical and toxicokinetic analyses.

[1] = tested on: patients with recent onset of symptomatic paroxysmal atrial fibrillation; test: FLE-002 (INSTANT) Phase 2 study: conversion of AF to sinus rhythm; format: in vivo, human; conditions: within 60 minutes of dosing, evaluable patients
Source text: Patient eligibility for this study is generally consistent with eligibility for IV flecainide. 18 years and older, both male and female sexes are eligible for this study. Inclusion and exclusion criteria are summarized in TABLE 18A and TABLE 18B, respectively.
The study consists of 2 parts: Part A and Part B. Part A (dose finding) evaluates the feasibility of administration of IH Flec. Part B will confirm the dose and will include a pilot sub-study to simulate a patient led scenario with medical supervision.
Part A study. […] IH Flec formulations tested in this study include the ones listed in TABLE 19 (*, “CD” denotes a cyclodextrin-based formulation including 10% (w/v) hydroxypropyl β-cyclodextrin, 90 mM acetic acid buffer, and having a pH of 5.2; **, “iCD-SAC” denotes a cyclodextrin-based formulation including 20% β(w/v) hydroxypropyl β-cyclodextrin, 5 mM acetic acid, and 750 μM saccharin, and having a pH of 5.9).
In this study, for inhalation delivery of flecainide, the estimated total lung doses (eTLDs) were calculated to account for losses of flecainide in the inhalation device and losses of flecainide in subjects' mouth and throat. eTLD was thereby used to denote the dose that actually reached the lungs of the subjects. By design, in all nebulizers there can be a residual volume or mass of drug solution that stays in the nebulizer, and there can also be a percentage of the aerosol caught by subject's throat and mouth. For instance, in this study, it was estimated that 30% of the aerosol was lost in subject's throat and mouth. Therefore the eTLD would be: eTLD=(100−30)%*amount of aerosolized drug that left nebulizer=70%*(amount of drug placed in nebulizer−amount of drug staying in nebulizer).
The AeroEclipse®II BAN inhaler was used for nebulization and inhalation of the exemplary flecainide formulations. It is available as an approved device in several countries across the world including European countries, USA, and Canada. […]

[2] = tested on: patients with recent onset of symptomatic paroxysmal atrial fibrillation; test: FLE-002 (INSTANT) study: QRS interval from 12-lead ECG; format: in vivo, human; conditions: change from baseline
[3] = FLE-002 (INSTANT) study: plasma levels of flecainide (Cmax); format: in vivo; conditions: human, inhaled, oral inhalation
[4] = Solubility of flecainide in D/L-lactic acid media; format: physicochemical; conditions: thermodynamic from solid
Procedure: D-lactic acid, L-lactic acid, or DL-lactic acid was slowly added portionwise to the suspension while stirring. The system was left to equilibrate for 30 minutes, and the pH was determined. The pH was then adjusted to 5.2-6 with NaOH if necessary. After addition of NaOH, the system was again left to equilibrate for 30 minutes before pH was measured. After the desired pH was achieved, the suspension was stirred (1000 rpm) at ambient temperature for 48 hours. At 24 hours and 48 hours of stirring, samples of each solution were centrifuged at 10000 rpm for 2 minutes and filtered with a 0.45 μm membrane to obtain supernatant for pH determination and HPLC analysis. Solids from each sample were also characterized by X-ray powder diffraction (XRPD) analysis.

[5] = tested on: patients with recent onset of symptomatic paroxysmal atrial fibrillation; conditions: inhaled, Total of all dose groups (N = 99)
[6] = Solubility comparison of different flecainide salts in 0.1M acid media; conditions: for pH: Media (0.1M)
physchem [7] = format: physicochemical; conditions: Solubility (mg/mL)
physchem [8] = conditions: thermodynamic from solid
Source text: The suspension was then magnetic stirred (1000 r/min) at RT for 24 hrs or 48 hrs.

[9] = Viscosity and complexation efficiency of flecainide acetate-HPβCD solutions; format: physicochemical; conditions: solutions adjusted to pH 5.2 with NaOH
Source text: In this example and the following examples, the (HP)-β-cyclodextrin used is “Cavitron W7 HP7 PHARMA”. The manufacturer (Ashland) specifies: <1.5% beta cyclodextrin (our batch had 1%) and molar substitution is between 0.86 and 1.14 (our batch had 1.05). From the manufacturer's brochure, the typical degree of substitution is 6.0 to 8.0 with an approximate average MW of 1520.
Beyond this concentration, the aerosol output rate can diminish slightly.

physchem [10] = conditions: aqueous buffer
physchem [11] = test: physchem
[12] = Solubility of flecainide acetate in binary, ternary and quaternary acid mixtures; conditions: acid mixture (acetic/nitric/sulfuric acid), 25 °C, aqueous buffer, thermodynamic from solid

Molecule: O=C(NCC1CCCCN1)c1cc(OCC(F)(F)F)ccc1OCC(F)(F)F (stereo not shown) [flecainide]
- clinical observation associated with exposure (Beagle dogs): labored respiration during or immediately post exposure
- Conversion Rate (AF to SR) ([1]; 30 mg eTLD): 1/10 (10%)
- Conversion Rate (AF to SR) ([1]; 60 mg eTLD): 7/20 (35%)
- Conversion Rate (AF to SR) ([1]; 90 mg eTLD): 7/21 (33%)
- ΔQRSmax ([2]; 30 mg eTLD): 5.5 ± 13.1 ms
- ΔQRSmax ([2]; 60 mg eTLD): 4.2 ± 4.6 ms
- ΔQRSmax ([2]; 90 mg eTLD): 4.1 ± 3.2 ms
- Cmax ([3]; 30 mg, 30 mg eTLD, read-out: Cmax (mean ± SD)): 127 ± 99.5 ng/mL
- Cmax ([3]; 30 mg, 30 mg eTLD, read-out: Cmax Range): 5.8 to 69 ng/mL
- Cmax ([3]; 60 mg, 60 mg eTLD, read-out: Cmax (mean ± SD)): 199 ± 222 ng/mL
- Cmax ([3]; 60 mg, 60 mg eTLD, read-out: Cmax Range): 6.6 to 817 ng/mL
- Cmax ([3]; 90 mg, 90 mg eTLD, read-out: Cmax (mean ± SD)): 248 ± 207 ng/mL
- Cmax ([3]; 90 mg, 90 mg eTLD, read-out: Cmax Range): 17 to 834 ng/mL
- solubility at 24 h ([4]; 20% w/v HPβCD in water with D-lactic acid, aqueous with cosolvent or surfactant or cyclodextrin, 20% w/v HPβCD, D-lactic acid, pH 5.8): 84.8 mg/mL (≈ 205 mM)
- solubility at 48 h ([4]; 20% w/v HPβCD in water with D-lactic acid, aqueous with cosolvent or surfactant or cyclodextrin, 20% w/v HPβCD, D-lactic acid, pH 5.5): 88.4 mg/mL (≈ 213 mM)
- solubility at 24 h ([4]; 20% w/v HPβCD in water with L-lactic acid, aqueous with cosolvent or surfactant or cyclodextrin, 20% w/v HPβCD, L-lactic acid, pH 6.3): 87.6 mg/mL (≈ 211 mM)
- solubility at 48 h ([4]; 20% w/v HPβCD in water with L-lactic acid, aqueous with cosolvent or surfactant or cyclodextrin, 20% w/v HPβCD, L-lactic acid, pH 6): 89.3 mg/mL (≈ 216 mM)
- solubility at 24 h ([4]; HPβCD solution with DL-lactic acid, aqueous with cosolvent or surfactant or cyclodextrin, 20% w/v HPβCD, DL-lactic acid, pH 6.5): 72.4 mg/mL (≈ 175 mM)
- solubility at 24 h ([4]; pure water with D-lactic acid, aqueous buffer, no excipient (pure water), D-lactic acid, pH 5.1): 90.1 mg/mL (≈ 217 mM)
- solubility at 48 h ([4]; pure water with D-lactic acid, aqueous buffer, no excipient (pure water), D-lactic acid, pH 5.4): 91 mg/mL (≈ 220 mM)
- solubility at 24 h ([4]; pure water with DL-lactic acid, aqueous buffer, no excipient (pure water), DL-lactic acid, pH 6.1): 76.3 mg/mL (≈ 184 mM)
- solubility at 48 h ([4]; pure water with DL-lactic acid, aqueous buffer, no excipient (pure water), DL-lactic acid, pH 6): 73.4 mg/mL (≈ 177 mM)
- solubility at 24 h ([4]; pure water with L-lactic acid, aqueous buffer, no excipient (pure water), L-lactic acid, pH 5.6): 96.6 mg/mL (≈ 233 mM)
- solubility at 48 h ([4]; pure water with L-lactic acid, aqueous buffer, no excipient (pure water), L-lactic acid, pH 5.1): 97.8 mg/mL (≈ 236 mM)
- Adverse events: Cough [5]: 51 (52) n (%)
- Adverse events: Dizziness [5]: 5 (5) n (%)
- Adverse events: Dysphagia [5]: 9 (9) n (%)
- Adverse events: Dyspnea [5]: 6 (6) n (%)
- Adverse events: Gastrointestinal disorders [5]: 23 (23) n (%)
- Adverse events: Hypotension [5]: 7 (7) n (%)
- Adverse events: Nervous system disorders [5]: 7 (7) n (%)
- Adverse events: Oropharyngeal pain [5]: 14 (14) n (%)
- Adverse events: Respiratory, thoracic and mediastinal disorders [5]: 60 (61) n (%)
- Adverse events: Salivary hypersecretion [5]: 8 (8) n (%)
- Adverse events: Throat irritation [5]: 12 (12) n (%)
- Adverse events: Vascular disorders [5]: 10 (10) n (%)
- Patients with at least one TEAE [5]: 80 (81) n (%)
- Patients with at least one TEAE, Moderate or Severe [5]: 35 (35) n (%)
- Patients with at least one TEAE, Severe [5]: 2 (2) n (%)
- Patients with at least one TEAE, Study-drug Related [5]: 74 (75) n (%)
- Patients with at least one TESAE [5]: 7 (7) n (%)
- Patients with at least one TESAE, Moderate or Severe [5]: 6 (6) n (%)
- Patients with at least one TESAE, Severe [5]: 2 (2) n (%)
- Patients with at least one TESAE, Study-drug Related [5]: 4 (4) n (%)

Molecule: flecainide nitrate [Nitric Acid]
- pH [6]: 4.0

Molecule: O=C(NCC1CCCCN1)c1cc(OCC(F)(F)F)ccc1OCC(F)(F)F (stereo not shown) [flecainide acetate]
- solubility (physchem [7]; pH 5.3, aqueous with cosolvent or surfactant or cyclodextrin): 55 mg/mL
- solubility (physchem [7]; pH 5.5, aqueous with cosolvent or surfactant or cyclodextrin): 69.7 mg/mL
- solubility at 48 h (physchem [8]; aqueous with cosolvent or surfactant or cyclodextrin, 48 hrs Flecainide Acetate Solubility): 110 mg/mL
- solubility at 24 h (physchem [8]; aqueous with cosolvent or surfactant or cyclodextrin, maximum solubility, calculated as freebase): 125 mg/mL
- solubility at 48 h (physchem [8]; aqueous with cosolvent or surfactant or cyclodextrin, solubility (48 hrs), calculated as freebase): 105 mg/mL
- solubility at 48 h (physchem [8]; water, 48 hrs Flecainide Acetate Solubility): 65.5 mg/mL
- solubility (physchem [8]; water, solubility of flecainide acetate water solution): ~60 mg/mL
- HPβCD molecules complexed with flecainide acetate [9]: 80%
- solubility (physchem [10]): 64 mg/mL
- solubility (physchem [11]; HPβCD solution with acetic acid, pH 4.9, aqueous with cosolvent or surfactant or cyclodextrin): 136 mg/mL
- solubility (physchem [11]; HPβCD solution with acetic acid, pH 5.1, aqueous with cosolvent or surfactant or cyclodextrin): 135 mg/mL
- solubility (physchem [11]; HPβCD solution with acetic acid, pH 5.2, aqueous with cosolvent or surfactant or cyclodextrin): 135 mg/mL
- solubility (physchem [11]; HPβCD solution with acetic acid, pH 5.5, aqueous with cosolvent or surfactant or cyclodextrin): 131 mg/mL
- solubility (physchem [11]; HPβCD solution without acetic acid, pH 6.3, aqueous with cosolvent or surfactant or cyclodextrin): 125 mg/mL
- pH [6]: 4.6
- effect of addition of sodium chloride (e.g. saline) to the formulation ([6]; XRPD confirmed form conversion): precipitation and loss of solubility
- solubility [12]: 82.4 mg/mL

Molecule: O=C(NCC1CCCCN1)c1cc(OCC(F)(F)F)ccc1OCC(F)(F)F (stereo not shown) [Hydrochloric Acid, flecainide hydrochloride]
- solubility (physchem [10]; Concentration (mg/mL) Freebase): 5.34 mg/mL
- pH ([6]; hydrochloride): 5.0

From patent US12576073B2, “Antiarrhythmic formulation” (InCarda Therapeutics, Inc., priority 2019, dated 2026)
